Measurements as given in ChEMBL document CHEMBL1143682, “Investigation into the P3 binding domain of m-calpain using photoswitchable diazo- and triazene-dipeptide aldehydes: new anticataract agents” (J Med Chem, 2007).
pIC50: −log10 of the molar value.

Test: Inhibition of sheep M-calpain by fluorescence based assay
Set-up: species or system Ovis aries

Row | pIC50 | Structure (SMILES)
1 | 6.77 | CC(C)[C@H](NC(=O)c1cccc(/N=N/c2ccccc2)c1)C(=O)N[C@H](C=O)Cc1ccccc1
2 | 7.46 | CC(C)[C@H](NC(=O)c1ccc(/N=N/c2ccccc2)cc1)C(=O)N[C@H](C=O)Cc1ccccc1
